Where a chain is given by its changes, count along the chain named.
How the values were obtained:
MR Hap 1 (GA) = biological target: T1, MR Hap 1 (GA) (Homo sapiens, UniProt P08235); experiment: Cortisol-induced transactivation assay, TAT3-Luc reporter in Cos-1 cells; type: cell-based; details: TAT-3 promoter, 24 h, read-out: EC50 of cortisol-induced luciferase transcription
T1 construct: expressed in transfected cells; host or cells: Cos-1 cells (African green monkey kidney)
T1 sequence (P08235 1-984): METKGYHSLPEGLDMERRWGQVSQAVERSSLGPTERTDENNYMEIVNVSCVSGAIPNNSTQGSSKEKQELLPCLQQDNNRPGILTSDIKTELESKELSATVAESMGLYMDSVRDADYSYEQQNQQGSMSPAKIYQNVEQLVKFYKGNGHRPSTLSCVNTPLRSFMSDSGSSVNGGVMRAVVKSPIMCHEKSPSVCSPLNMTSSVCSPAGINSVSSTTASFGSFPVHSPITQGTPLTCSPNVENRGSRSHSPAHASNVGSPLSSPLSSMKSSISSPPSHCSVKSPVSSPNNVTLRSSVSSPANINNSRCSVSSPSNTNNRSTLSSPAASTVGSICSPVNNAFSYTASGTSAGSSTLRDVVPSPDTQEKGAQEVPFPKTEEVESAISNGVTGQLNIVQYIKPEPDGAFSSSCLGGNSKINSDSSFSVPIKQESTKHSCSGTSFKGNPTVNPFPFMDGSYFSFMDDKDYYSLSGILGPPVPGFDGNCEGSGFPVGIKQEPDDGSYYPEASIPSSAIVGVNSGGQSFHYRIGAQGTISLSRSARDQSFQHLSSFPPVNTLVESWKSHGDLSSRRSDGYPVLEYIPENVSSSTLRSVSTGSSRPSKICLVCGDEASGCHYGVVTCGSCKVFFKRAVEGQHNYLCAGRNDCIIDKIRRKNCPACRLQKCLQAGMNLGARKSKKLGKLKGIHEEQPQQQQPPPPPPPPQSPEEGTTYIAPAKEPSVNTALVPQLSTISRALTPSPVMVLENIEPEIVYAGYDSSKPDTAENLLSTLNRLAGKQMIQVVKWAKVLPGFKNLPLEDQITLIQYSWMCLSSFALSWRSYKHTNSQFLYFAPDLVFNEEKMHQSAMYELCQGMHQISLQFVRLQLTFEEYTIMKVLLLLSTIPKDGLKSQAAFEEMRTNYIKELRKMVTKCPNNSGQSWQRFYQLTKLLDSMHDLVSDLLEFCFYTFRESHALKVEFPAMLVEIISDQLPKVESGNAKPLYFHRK
Method: (§1) Cos-1 cells (African green monkey kidney cells) were cultured in DMEM high glucose supplemented with 10% FCS (Gibco, Paisley, UK). Cells were seeded in 24-well plates (Greiner Bio-One, Alphen a/d Rijn, The Netherlands) at 3×10^4 cells/well in DMEM supplemented with charcoal-stripped serum. The cells were transfected the next day using SuperFect (Qiagen, Venlo, The Netherlands). hMR plasmids and the reporter plasmid TAT3-Luc (tyrosine amino transferase triple hormone response element) were used at 100 ng/well. The control plasmid pCMV-R (Promega, Leiden, The Netherlands) coding for Renilla luciferase controlled by cytomegalovirus (CMV) promoter was used (10 ng/well). One day after transfection, the cells were treated with cortisol (Sigma-Aldrich, Zwijndrecht, the Netherlands) in concentrations ranging from 0 to 10^−8 M. After 24 h of incubation the cells were harvested in passive lyses buffer (Promega) and firefly and Renilla luciferase activity was determined using a dual label reporter assay (Promega) and a luminometer (CENTRO XS3 LB960, Berthold, Bad Wildbad, Germany). Three separate experiments were performed and all three experiments were performed in triplicate.
(§2) The in vitro experiments were analyzed using GraphPad prism 4 (GraphPad software Inc, San Diego, Calif.). In the transactivation assays firefly/renilla luciferase ratios were normalized against the highest signal and background expression was subtracted. MR protein expression measured by western blot was normalized against γ-Tubulin. The differences between the four hMR variants were analyzed with one and two-way ANOVAs with Bonferroni posttests. In the radioligand binding assay one-binding-site curve fitting was used to determine the dissociation constant (Kd) and maximal binding (Bmax). The specific MR cortisol binding was obtained by subtracting the non-specific binding from the total binding.

MR Hap 2 (CA) = biological target: T2, MR Hap 2 (CA) (Homo sapiens, UniProt P08235); experiment: as above; type: cell-based; details: TAT-3 promoter, 24 h, read-out: EC50 of cortisol-induced luciferase transcription
T2 construct: expressed in transfected cells; host or cells: Cos-1 cells (African green monkey kidney)
T2 sequence (P08235 1-984): T1 sequence (P08235 1-984)
Method: as §1, §2

MR Hap 3 (CG) = biological target: T3, MR Hap 3 (CG) (Homo sapiens, UniProt P08235); experiment: as above; type: cell-based; details: TAT-3 promoter, 24 h, read-out: EC50 of cortisol-induced luciferase transcription
T3 construct: expressed in transfected cells; host or cells: Cos-1 cells (African green monkey kidney)
T3 sequence (P08235 1-984 V241A): T1 sequence (P08235 1-984) with V241A
Method: as §1, §2

MR Hap 4 (GG) = biological target: T4, MR Hap 4 (GG) (Homo sapiens, UniProt P08235); experiment: as above; type: cell-based; details: TAT-3 promoter, 24 h, read-out: EC50 of cortisol-induced luciferase transcription
T4 construct: expressed in transfected cells; host or cells: Cos-1 cells (African green monkey kidney)
T4 sequence (P08235 1-984 V241A): T1 sequence (P08235 1-984) with V241A
Method: as §1, §2

MR180V = biological target: T5, MR180V (Homo sapiens, UniProt P08235); experiment: [3H]Cortisol ligand binding assay, cytosol of transfected Cos-1 cells; details: mean±SD
T5 construct: expressed in transfected cells; host or cells: Cos-1 cells (African green monkey kidney)
T5 sequence (P08235 1-984): T1 sequence (P08235 1-984)
Method: (§3) Cos-1 cells were seeded in 20 cm plates (Greiner Bio-One, Alphen a/d Rijn, The Netherlands) at 2×10^6 cells/plate in DMEM supplemented with 5% charcoal-stripped serum. Cells were transfected the next day using Mirus Transit-COS reagent according to the manufacturer's protocol (Sopachem, Ochten, The Netherlands) and hMR plasmids were used at 30 μg/plate. After 24 hours medium was replaced with serum free DMEM and after another 24 hours cells were pelleted. All further steps are carried out at 0° C. Cells were resuspended in 3.5 ml buffer (5 mM Tris-HCl (pH 7.4), 1 mM EDTA, 1 mM B-Mercaptoethanol, 10 mM Na-Molybdate, 5% glycerol) per plate and 3×15 seconds homogenised using an electric homogenizer (Pro200, Pro scientific, Oxford, Conn., USA). The homogenate was centrifuged (100.000×g, 2° C.) to obtain cytosol.
(§4) 200 μl cytosol was incubated with [^3H]Cortisol (70 Ci/mmol, Amersham, Buckinghamshire, UK) to asses total binding or [^3H]Cortisol and a 500 fold excess of dexamethasone (Sigma-Aldrich, Zwijndrecht, the Netherlands) to asses non-specific binding. [^3H]Cortisol was used at 0.5 nM, 1 nM, 1.5 nM, 2.5 nM, 3.5 nM, 5 nM. After vortexing and 3 hours incubation on ice bound and free [^3H]Cortisol fractions were separated by Sephadex LH-20 as described previously (de Kloet et al., 1975). Fractions containing the receptor bound radioligand were collected, vortexed with 3 ml Ultima Gold scintillation fluid (Perkin Elmer, Waltham, Mass., USA) and radioactivity was measured in a liquid scintillation analyzer (1900CA Packard, Perkin Elmer). Three separate experiments were performed and all three experiments were performed in triplicate.
as §2

MRI180 = biological target: T6, MRI180 (Homo sapiens, UniProt P08235); experiment: as above; details: MRI180, mean±SD
T6 construct: expressed in transfected cells; host or cells: Cos-1 cells (African green monkey kidney)
T6 sequence (P08235 1-984): T1 sequence (P08235 1-984)
Method: as §3, §4, §2

four MR haplotypes = experiment: Ligand induced transactivation on a TAT-3 promoter in Cos-1 cells, comparison among haplotypes; type: cell-based, human; details: for difference in transactivation responses among the four MR haplotypes: reporter (fluc)/control (rluc) ratios, three experiments pooled
Method: as §1
as §2, with “binding. The difference in Kd and Bmax between MRI180 and MR180V was tested with a t-test. In vitro results are shown as the mean±SD.” for “binding.”

[1] = three experiments pooled, read-out: dissociation constant (Kd) of cortisol binding

| EC50 (MR Hap 1 (GA)) | EC50 (MR Hap 2 (CA)) | EC50 (MR Hap 3 (CG)) | EC50 (MR Hap 4 (GG)) | maximal binding (Bmax) of cortisol (MR180V) | Kd (MR180V; [1]) | maximal binding (Bmax) of cortisol (MRI180) | Kd (MRI180; [1]) | SMILES | maximal luciferase expression (Emax) (four MR haplotypes; Hap 1 (GA) and 4 (GG) compared with Hap 2 (CA) and 3 (CG)) | difference in transactivation responses among the four MR haplotypes (four MR haplotypes) |
| --- | --- | --- | --- | --- | --- | --- | --- | --- | --- | --- |
| 0.039 nM | 0.017 nM | 0.019 nM | 0.073 nM | 7112±371 binding sites/cell | 0.93 ± 0.16 nM | 6539±499 binding sites/cell | 0.86 ± 0.2 nM | C[C@]12CCC(=O)C=C1CC[C@@H]1[C@@H]2[C@@H](O)C[C@@]2(C)[C@H]1CC[C@]2(O)C(=O)CO [cortisol] | significant lower maximal luciferase expression (Emax) | significantly different responses |
| – | – | – | – | – | – | – | – | C[C@]12CCC(=O)C=C1CC[C@@H]1[C@@H]2[C@@H](O)C[C@]2(C=O)[C@@H](C(=O)CO)CC[C@@H]12 [Aldosterone] | – | did not show significantly different responses |

Source: patent publication US9644240B2, “Disease susceptibility” (Leiden University, priority 2009, dated 2017)
